Values joined by “and” are separate entries in the source; they are usually repeats but may differ in a detail not shown here. Identical values can stand only once.
Key:
IL-2 = experiment: Anti-CD3/CD28-stimulated human CD8 cells, IL-2 release (multi-cytokine bead immunoassay)
IFN-γ [1] = experiment: Anti-CD3/CD28-stimulated human CD8 cells, IFN-γ release (multi-cytokine bead immunoassay)
[2] = Study A: tolerance and pharmacokinetics in volunteers after single oral dose; settings: human, in vivo
IFN-γ [3] = experiment: ConA-stimulated human peripheral blood lymphocytes, IFN-γ release (ELISA); settings: for Percent inhibition of IFN-γ compared to uninhibited control: human T cells, ConA stimulation
IL-12 = experiment: LPS-stimulated human monocyte-derived dendritic cells, IL-12 release (ELISA); settings: LPS stimulation
GM-CSF = experiment: Anti-CD3/CD28-stimulated human CD8 cells, GM-CSF release (multi-cytokine bead immunoassay); settings: 1 μM Nileprost, Anti-CD3/CD28 stimulation, individual donors 1-4
TNFα [4] = experiment: ConA-stimulated human peripheral blood lymphocytes, TNFα release (ELISA); settings: human T cells, ConA stimulation
clinical = settings: human, in vivo, po
TNFα [5] = experiment: Poly(I:C)-stimulated human monocyte-derived dendritic cells, TNFα release (ELISA); assay type: cell-based; settings: one micromolar; for TNFα percent inhibition from untreated control: Poly IC-stimulated monocyte-derived dendritic cells, 18 hours

CCCCC(C)[C@H](O)/C=C/[C@@H]1[C@H]2C/C(=C(\C#N)CCCC(=O)O)O[C@H]2C[C@H]1O (stereo partly drawn) [Nileprost]
Percent inhibition of IL-2 compared to uninhibited control (IL-2; 1 μM Nileprost, Anti-CD3/CD28 stimulation, individual donors 1-4): 70%
inhibition at 1 µM (IL-2; Homo sapiens, read-out: Percent inhibition of IL-2 compared to uninhibited control, 1 μM Nileprost, Anti-CD3/CD28 stimulation, individual donors 1-4): 71%
Percent inhibition of IFN-γ compared to uninhibited control (IFN-γ [1]; 1 μM Nileprost, human CD8 cells, Anti-CD3/CD28 stimulation, individual donors 1-4): 59% and 80%
inhibitory activity in the cytotoxic CD8+ lymphocyte cytokine release (IFN-γ [1]; IFN-γ, GM-CSF and IL-2, anti-CD3/CD28 stimulation): very high inhibitory activity
Cmax ([2]; 32 ug): 0.84 ng/mL and 2.1 nM
Cmax ([2]; 65 ug): 0.929 ng/mL and 2.3 nM
Percent inhibition of IFN-γ compared to uninhibited control (IFN-γ [3]; Nileprost 0.04 nM, individual donors 5-8): 16% and 7% and 9% and 27%
Percent inhibition of IFN-γ compared to uninhibited control (IFN-γ [3]; Nileprost 0.11 nM, individual donors 5-8): 22% and 16% and 34%
Percent inhibition of IFN-γ compared to uninhibited control (IFN-γ [3]; Nileprost 1 nM, individual donors 5-8): 43% and 32% and 24% and 51%
Percent inhibition of IFN-γ compared to uninhibited control (IFN-γ [3]; Nileprost 1.25 nM, individual donors 1-4): 11%
Percent inhibition of IFN-γ compared to uninhibited control (IFN-γ [3]; Nileprost 2.5 nM, individual donors 1-4): 43%
Percent inhibition of IFN-γ compared to uninhibited control (IFN-γ [3]; Nileprost 3 nM, individual donors 5-8): 56% and 46% and 22% and 71%
Percent inhibition of IFN-γ compared to uninhibited control (IFN-γ [3]; Nileprost 5 nM, individual donors 1-4): 48% and 56%
Percent inhibition of IFN-γ compared to uninhibited control (IFN-γ [3]; Nileprost 9 nM, individual donors 5-8): 59% and 60% and 48% and 73%
Percent inhibition of IFN-γ compared to uninhibited control (IFN-γ [3]; Nileprost 10 nM, individual donors 1-4): 43%
Percent inhibition of IFN-γ compared to uninhibited control (IFN-γ [3]; Nileprost 20 nM, individual donors 1-4): 56% and 67%
Percent inhibition of IFN-γ compared to uninhibited control (IFN-γ [3]; Nileprost 83 nM, individual donors 5-8): 57% and 60% and 65% and 85%
Percent inhibition of IFN-γ compared to uninhibited control (IFN-γ [3]; Nileprost 250 nM, individual donors 5-8): 59% and 76% and 57% and 83%
inhibitory activity in the T lymphocyte Th-1 cytokine release (IFN-γ [3]; dose responsively, ConA-stimulated human lymphocytes): very high inhibitory activity
inhibitory activity in human monocyte-derived dendritic cell (DC) cytokine release (IL-12): very high inhibitory activity
Percent inhibition of GM-CSF compared to uninhibited control (GM-CSF): 65% and 61%
inhibition at 0.001 µM (TNFα [4]; Homo sapiens, T-cell, read-out: Percent inhibition of TNF compared to uninhibited control, Nileprost 1 nM, individual donors 3-4): 24%
inhibition at 0.0025 µM (TNFα [4]; Homo sapiens, T-cell, read-out: Percent inhibition of TNF compared to uninhibited control, Nileprost 2.5 nM, individual donors 1-2): 24%
inhibition at 0.003 µM (TNFα [4]; Homo sapiens, T-cell, read-out: Percent inhibition of TNF compared to uninhibited control, Nileprost 3 nM, individual donors 3-4): 28%
inhibition at 0.005 µM (TNFα [4]; Homo sapiens, T-cell, read-out: Percent inhibition of TNF compared to uninhibited control, Nileprost 5 nM, individual donors 1-2): 47%
inhibition at 0.009 µM (TNFα [4]; Homo sapiens, T-cell, read-out: Percent inhibition of TNF compared to uninhibited control, Nileprost 9 nM, individual donors 3-4): 53%
inhibition at 0.01 µM (TNFα [4]; Homo sapiens, T-cell, read-out: Percent inhibition of TNF compared to uninhibited control, Nileprost 10 nM, individual donors 1-2): 46%
inhibition at 0.02 µM (TNFα [4]; Homo sapiens, T-cell, read-out: Percent inhibition of TNF compared to uninhibited control, Nileprost 20 nM, individual donors 1-2): 50%
inhibition at 0.083 µM (TNFα [4]; Homo sapiens, T-cell, read-out: Percent inhibition of TNF compared to uninhibited control, Nileprost 83 nM, individual donors 3-4): 61%
Percent inhibition of TNF compared to uninhibited control (TNFα [4]; Nileprost 0.04 nM, individual donors 3-4): 1% and 11%
Percent inhibition of TNF compared to uninhibited control (TNFα [4]; Nileprost 0.11 nM, individual donors 3-4): 4% and 16%
Percent inhibition of TNF compared to uninhibited control (TNFα [4]; Nileprost 0.5 nM, individual donors 1-2): 7% and 1%
Percent inhibition of TNF compared to uninhibited control (TNFα [4]; Nileprost 1 nM, individual donors 3-4): 37%
Percent inhibition of TNF compared to uninhibited control (TNFα [4]; Nileprost 1.25 nM, individual donors 1-2): 14% and 5%
Percent inhibition of TNF compared to uninhibited control (TNFα [4]; Nileprost 2.5 nM, individual donors 1-2): 19%
Percent inhibition of TNF compared to uninhibited control (TNFα [4]; Nileprost 3 nM, individual donors 3-4): 48%
Percent inhibition of TNF compared to uninhibited control (TNFα [4]; Nileprost 5 nM, individual donors 1-2): 36%
Percent inhibition of TNF compared to uninhibited control (TNFα [4]; Nileprost 9 nM, individual donors 3-4): 67%
Percent inhibition of TNF compared to uninhibited control (TNFα [4]; Nileprost 10 nM, individual donors 1-2): 49%
Percent inhibition of TNF compared to uninhibited control (TNFα [4]; Nileprost 83 nM, individual donors 3-4): 76%
Percent inhibition of TNF compared to uninhibited control (TNFα [4]; Nileprost 250 nM, individual donors 3-4): 49% and 76%
Cmax (clinical; 50 ug): 0.566 ng/mL and 1.4 nM
Cmax (clinical; 75 ug): 0.869 ng/mL and 2.2 nM
Cmax (clinical; 112 ug): 0.803 ng/mL and 2 nM
Cmax (clinical; 170 ug): 0.954 ng/mL and 2.4 nM
Cmax (clinical; 255 ug): 1.71 ng/mL and 4.3 nM
Cmax (clinical; 375 ug): 1.72 ng/mL and 4.3 nM
TNFα percent inhibition from untreated control (TNFα [5]; Donor 1): 89%
TNFα percent inhibition from untreated control (TNFα [5]; Donor 2): 45%
TNFα percent inhibition from untreated control (TNFα [5]; Donor 3): 74%
Poly(I:C)-induced TNFα (TNFα [5]; monocyte-derived dendritic cells): significant decrease

Source: patent US8980944B2 (Gemmus Pharma Inc., priority 2006, dated 2015)
